Patent US7666996B2, “Casein derived peptides and uses thereof” (priority 2000, dated 2010)

Tests used:
[1] = system: Non-Obese Diabetic (NOD) mice; assay: Glucosuria in Non-Obese Diabetic (NOD) mice; assay type: in vivo; conditions: for prevention of onset of glucosuria (in words): additional series, assayed at week 16, data not shown
Protocol: Juvenile (Type I, IDDM) diabetes in Non-Obese Diabetic (NOD) mice:
Peptides derived from natural casein: NOD mice are a commonly used model for research of autoimmune disease and human Juvenile Diabetes. Six week old female NOD mice received either one or two injections per week of 100 μg of peptides derived from natural casein, for a total of 5 or 10 treatments. Control mice received no treatment. The severity of disease was determined according to glucosuria, which was measured using Combi test sticks [Gross, D. J. et al (1994), Diabetology, 37:1195]. Results were expressed as the percent of glucosuria-free mice in each sample over a 365-day period.
Synthetic peptides derived from casein: In another experiment, 6 week old female NOD mice received one injection per week of 100 μg of Synthetic peptides derived from casein for a total of 5 treatments. Control mice received no treatment. Results were expressed as the number of healthy mice in the various treated groups.

[2] = system: murine bone marrow progenitor cells; assay: CFU-GEMM colonies from murine bone marrow cells, differential counts; assay type: cell-based; conditions: 53% in controls
Protocol: Proliferation of megakaryocytes in multipotential colonies (CFU-GEMM) from murine bone marrow cells: Primary bone marrow cells (1×10^5 per ml) from 8-12 week-old C3H/HeJ […], 95% air, at 37° C. The medium, appropriate for the growth of multipotential colonies (CFU-GEMM), contained 1% BSA (Sigma), 10^−4 M thioglycerol (Sigma), 2.8×10^−4 M human transferrin (TF, Biological industries, Israel), 10% WEHI-CM as a source of IL-3 and 2 units per ml erythropoietin (rhEPO, R & D Systems, Minneapolis). […] They were picked with a micropipette, cytocentrifuged and stained with May-Grunwald-Giemsa for differential counts. At least 700 cells were counted for each preparation.
Proliferation of Dendritic cells in CFU-GEMM: Multipotent (CFU-GEMM) colonies grown from primary bone marrow cells as described for the assay of megakaryocyte proliferation above were collected, stained and counted for dendritic cells. At least 700 cells were counted for each preparation.
Proliferation of Plasma cells in CFU-GEMM: Multipotent (CFU-GEMM) colonies grown from primary bone marrow cells as described for the assay of megakaryocyte proliferation above were collected, stained and counted for plasma cells. At least 700 cells were counted for each preparation.
Proliferation of Macrophage Cells in CFU-GEMM: Multipotent (CFU-GEMM) colonies grown from primary bone marrow cells as described for the assay of megakaryocyte proliferation above were collected, stained and counted for macrophage cells. At least 700 cells were counted for each preparation.
Proliferation of Red Blood Cells in CFU-GEMM: Multipotent (CFU-GEMM) colonies grown from primary bone marrow cells as described for the assay of megakaryocyte proliferation above were collected, stained and counted for red blood cells. At least 700 cells were counted for each preparation.
Proliferation of Polymorphonuclear Cells (PMN) in CFU-GEMM: Multipotent (CFU-GEMM) colonies grown from primary bone marrow cells as described for the assay of megakaryocyte proliferation above were collected, stained and counted for polymorphonuclear cells. […]

[3] = system: Non-Obese Diabetic (NOD) mice; assay: Intraperitoneal Glucose Tolerance Test (IPGTT) in NOD mice; assay type: in vivo; conditions: healthy NOD mice after 25 weeks
Protocol: Intraperitoneal Glucose Tolerance Test (IPGTT): The glucose tolerance test is the definitive method for investigating glucose metabolism and diabetic tendencies in mammals. Twenty five (25) weeks after receiving Synthetic peptides derived from casein, response to a glucose load was assessed with an intraperitoneal glucose tolerance test. Glucose injection consisted of 1 g/kg body weight. Glycemic values were determined from blood drawn prior to test (0 minutes) and 60 minutes after loading.

Sup-T1 cells = assay: Sup-T1 lymphocyte proliferation (cell counts); assay type: cell-based, human; conditions: data not shown
Protocol: [^3H]-thymidine incorporation test: In order to test the effect of peptides derived from natural casein on T cell proliferation, several concentrations of peptides derived from natural casein (10 mg/ml stock in RPMI) were added to Sup-T1 cell cultures in 96 flat bottom microwell plate (5000 cells/well), as described for HIV-1 infection in Sup-T1 cells. Cells were counted and their viability was determined by trypan blue dye exclusion. They were pulsed with [^3H]-thymidine at each time point (3, 7, 10 and 14 days) for 18 hours (over night) and harvested on glass fiber filters for radioactivity reading (Incorporation of [^3H]-thymidine into cellular DNA is proportional to degree of cell proliferation).

[4] = system: murine bone marrow progenitor cells; assay: CFU-GM colony formation with IL-3 and G-CSF, murine bone marrow; assay type: cell-based
Protocol: Cells were scored in the macroscopic colonies grown from murine bone marrow cells prepared similarly to the CFU-GEMM colonies previously described. Cells were incubated with hematopoietic factors cytokine (IL-3) and colony stimulating factor (G-CSF), and 25 μg or more of synthetic peptides derived from casein (J), representing amino acids 1-22 of α-S1 casein, or 30-4, representing amino acids 1-6 of α-S1 casein, for 14 days, individually or in combination. The stimulation of colony formation (CFU) is expressed as the number of myeloid colonies in 10^5 plated MNCs.
Synthetic peptides derived from αS1-casein stimulate Granulopoietic (GM) cell proliferation in CFU-GM: As mentioned hereinabove, formation and expansion of CFU-GM (Granulocyte and Macrophage) colonies, and CFU-GEMM (Granulocyte, Erythroid, Macrophage and Megakaryocyte) colonies constitute one of the early events in the differentiation of hematopoietic progenitor cells in the bone marrow.

[5] = system: irradiated, bone marrow transplanted mice; assay: Leukocyte and platelet reconstitution in bone marrow transplant recipient mice; assay type: in vivo; conditions: 800 cGy; 1.0 mg i.p. daily, days 4-7
Protocol: Leukocyte and platelet reconstitution in bone marrow transplant recipient Mice: BALB/c mice were sub-lethally irradiated at a source to skin distance of 70 cm, dosage of 50 cGy per minute, for a total of 600 cGy. The irradiated mice were […] casein, synthetic peptides derived from casein (13-26 amino acids, see Table 3 above), or human serum albumin (controls), following a double-blinded protocol. Leukocyte reconstitution was determined according to cell count in peripheral blood collected at indicated intervals from 6 to 12 days post treatment. Platelet reconstitution was determined by cell count in blood collected from the retro orbital plexus, into EDTA-containing vials, at indicated intervals from day 6 to day 15 post treatment. […]
In a third series of experiments, the mice were irradiated (800 cGy), reconstituted and injected intraperitoneally with 1.0 mg synthetic peptides derived from casein (peptides 3a and 4P, representing the first 6 and 12 amino acids of the N terminus of αS1 casein, respectively—see Table 3 above) daily, on days 4, 5, 6 and 7 post-transplantation. Platelet reconstitution was assayed at 10 and 12 days post-transplantation.
In a fourth series of experiments, F1 mice were irradiated (750 cGy), reconstituted with syngeneic bone marrow, and injected intravenously 24 hours later with 1 mg per mouse of synthetic peptides derived from casein representing amino acids 1-22 of the N terminus of αS1 casein. In addition, 2 (two) groups of mice were treated each with a natural fraction of αS1 casein position 1-23, and a fraction of peptides derived from natural κ-casein, representing amino acid coordinates 106-169 of κ-casein (SEQ ID NO: 27). WBC counts were conducted on days 5, 7, 10 and 12 post-transplantation.

[6] = system: HIV-1 (CEM lymphocyte cells); assay: Inhibition of HIV-1 infection of CEM lymphocytes; assay type: cell-based; conditions: for Lymphocyte cell numbers: day 7; for HIV-1 infection level, HIV-P24 antigen: control 0.52
Protocol: Peptides: Peptides [either peptides derived from natural casein or synthetic peptides derived from casein (2-26 amino acids in length, see table 3)] supplied as lyophilized powder were resuspended in RPMI complete medium and added to cell cultures at a final concentrations of 50 to 1000 μg per ml.
Cells: Several types of freshly isolated human cells (primary cells) and cell lines are known to be susceptible to in vitro HIV-1 infection, although essentially any cell displaying even low surface levels of the CD4 molecule can be considered a potential target for HIV-1 infection. Two commonly used human cell lines which are highly sensitive for HIV-1 infection were chosen, CEM and Sup-T1.
CEM is a human T4-lymphoblastoid cell line initially derived by G. E. Foley et al. [(1965), Cancer 18:522] from peripheral blood buffy coat of a person with acute lymphoblastic leukemia. These cells were continuously maintained in suspension in medium, and have been used widely for analysis of infectivity, antiviral agents and neutralizing antibodies.
Virus: The HIV virus strain employed was HIV-1IIIB, originally designated HTLV-IIIB. Concentrated culture fluids of peripheral blood from several patients with AIDS or related diseases were used to establish a permanent productive infection in H-9 cells. This subtype B virus has high capacity to replicate in human T-cell lines. Viral titer was 5.38 ng per ml in stock solution.
HIV-1 P^24 antigen capture assay: An HIV-1 P^24 Antigen capture assay kit employed was designed to quantitate the HIV-1 P^24 core antigen, which is proportionally related to the degree of viral production in cells. This kit was purchased from the AIDS Vaccine program of the SAIC-NCI-Frederick Cancer Research Institute, P.O. Box B, Frederick, Md. 21702, USA and included 96 well plates coated with monoclonal antibody to HIV-1 P^24, primary antibody-rabbit anti-HIV P^24 serum, secondary antibody-Goat anti-rabbit-IgG (H+L) peroxidase conjugated antibody, TMB peroxidase substrate system and lysed HIV-1 P^24 standard. The HIV-1 P^24 antigen capture assay was analyzed by Organon-Technica ELISA reader at 450 nm with a reference at 650 nm.
HIV-1 P^24 antigen capture ELISA: HIV infection was measured with an indirect enzyme immunoassay which detects HIV-1 P^24 core antigens in tissue culture media. Tissue culture supernatant was reacted with primary rabbit anti-HIV-1 P^24 antigen and visualized by peroxidase conjugated goat anti rabbit IgG. The reaction was terminated by adding 4N H2SO4, wherein the intensity of the color developed is proportional to the amount of HIV-1 antigen present in the tissue culture supernatant.
HIV infection of human cultured CD4 cells: For longer incubations, the cells (CEM, Sup-T1) were preincubated with several increasing concentrations of peptides derived from natural casein (50-1000 μg per ml) or synthetic peptides derived from casein (10-500 μg per ml) for 24 (for synthetic and natural peptides) and 48 (only for natural peptides) hours and HIV-1IIIB (45 pg per ml final concentration) was added to each well thereafter. For the shorter incubations (3 hours), HIV-1IIIB was preincubated with the peptides for 3 hours and then added to cells (5000 cells/well) in tissue culture plates. Controls were IF (Infected, cells cultured with HIV-1 and without peptides), UIF (Uninfected, cells cultured without HIV-1 and without peptides) and UIF +Ch (Uninfected+peptides derived from natural casein, cells cultured in the presence of peptides derived from natural casein {50-1000 μg per ml}) to test the effect of peptides derived from natural casein and synthetic peptides derived from casein on cell viability and growth. Cells were counted for viability and proliferation rate on day 7, 10 and day 14 post infection (the day of P^24 antigen culture supernatant harvest). Cells and tissue culture supernatants (media) were harvested and lysed immediately in 1/10 volume of 10% Triton X-100. […]

[7] = system: human Peripheral Blood Stem Cells (K562 target cells); assay: Natural Killer (NK) cell activity in cultured human PBSC; assay type: cell-based
Protocol: From human Peripheral Blood Stem Cells (PBSC): PBSC of G-CSF treated subjects were separated on a FICOLL gradient, washed twice with RPMI-1640 medium containing 10% FCS and glutamine and seeded into 1.5 ml wells with or without peptides derived from natural casein or synthetic peptides derived from casein, as indicated, (0-500 μg per ml). Following two days incubation the cells were assayed for Natural Killer activity by measuring radioactivity released from ^35S-labeled K562 target cells (NEG-709A, 185.00 MBq, […] EASYTAGth Methionine, L-[^35S] 43.48 TBq per mmol, 1175.0 Ci per mmol, 0.488 ml, Boston USA). Two concentrations of effector cells (2.5×10^5 and 5×10^5 cells per well) were incubated with 5×10^3 target cells per well (effector:target cell ratios of 50:1 and 100:1, respectively) in U-bottomed 96 well tissue culture plates. The cells were incubated for 5 hours at 37° C. in 5% CO2, 95% air and precipitated by 5 minutes centrifugation at 1000 rpm. ^35S release was measured in 50 μl samples of the supernatant liquid.

## RPKH [2P, synthetic peptide, N-terminal 4 amino acids of αS1 casein]
[1]
  prevention of onset of glucosuria (in words): effectively prevented the onset of glucosuria
[2]
  red blood cells, % of total cell count: 71%

## RPKHPIKHQ [X, synthetic peptide, N-terminal 9 amino acids of αS1 casein]
[1]; 100 μg once weekly for 5 weeks, 25 weeks
  prevention of glucosuria (in words): highly effective
[1]; female NOD mice, 100 μg synthetic peptide once weekly for 5 weeks, evaluated after 25 weeks
  Healthy/Total (sugar not detected in urine): 3/5
[1]; individual healthy NOD mice, after 25 weeks
  Urine Sugar: Negative
[3]
  IPGT test outcome (in words): no evidence of abnormal glucose metabolism
Sup-T1 cells; 250 μg per ml
  increase in lymphocyte cell number in infected cells: 80%
Sup-T1 cells; 500 μg per ml
  increase in lymphocyte cell number in infected cells: 33%

## RPKHPI [4P, synthetic peptide, N-terminal 6 amino acids of αS1 casein]
[4]; 25 μg or more, 14 days
  myelocyte formation with G-CSF and IL-3 (in words): synergistic increase
[4]; in the presence of G-CSF
  increase in proliferation of granulocytes: 18%
[5]
  increase in platelet counts over control, 12 days post transplantation: 29%
  platelet counts, 12 days post transplantation: 872000 mL⁻¹
[6]; 25 μg per ml, virus pre-treated 3 hours, infected control 1.06×10^6
  Cell counts: 1.26×10^6
[6]; 250 μg per ml, virus pre-treated 3 hours, infected control 1.06×10^6
  Cell numbers: 1.59×10^6
[6]; virus preincubated 3 hours, 7 days post infection
  HIV-P24 antigen, viral particles vs infected control (in words): dose dependent reduction

## RPK [1P, synthetic peptide, N-terminal 3 amino acids of αS1 casein]
[1]
  prevention of onset of glucosuria (in words): effectively prevented the onset of glucosuria
[7]; PBS cells from 5 donors with hematopoietic disease, 25-250 μg/ml
  target cell lysis relative to untreated controls: from 2- to greater then 8-fold
[7]; healthy donors
  effect on NK activity in PBSC from healthy human donors: No significant effect
[6]; 100 μg per ml, infected control 1.06×10^6
  Lymphocyte cell numbers: 1.29×10^6
[6]; 100 μg/ml, 7 days post infection
  HIV-1 infection level, HIV-P24 antigen: 0.17 ng P^24 Antigen/ml
[6]; 500 μg per ml, infected control 1.06×10^6
  Lymphocyte cell numbers: 2.01×10^6
[6]; 500 μg/ml, 7 days post infection
  HIV-1 infection level, HIV-P24 antigen: 0.14 ng P^24 Antigen/ml
